Data taken from US9241487B2, “Pyrimidine derivatives and use thereof as pesticides” (BAYER INTELLECTUAL PROPERTY GMBH, priority 2010, dated 2016).

Columns and labels:
Septoria tritici = Septoria tritici test (wheat)/protective; assay type: in vivo; settings: Zymoseptoria tritici, 504 h, protective spray, evaluation 21 days after inoculation, read-out: Efficacy (%)
Method: Septoria tritici Test (Wheat)/Protective
(§1) Solvent: 49 parts by weight of N,N-dimethylacetamide
(§2) Emulsifier: 1 part by weight of alkylaryl polyglycol ether
(§3) To produce a suitable preparation of active compound, 1 part by weight of active compound is mixed with the stated amounts of solvent and emulsifier, and the concentrate is diluted with water to the desired concentration. To test for protective activity, young plants are sprayed with the preparation of active compound at the stated application rate. After the spray coating has dried on, the plants are sprayed with a spore suspension of Septoria tritici. The plants remain in an incubation cabin at 20° C. and 100% relative atmospheric humidity for 48 hours. Thereafter, the plants are placed under a translucent hood at 15° C. and 100% relative air humidity for a further 60 hours. The plants are placed in a greenhouse at a temperature of about 15° C. and a relative atmospheric humidity of about 80%. Evaluation follows 21 days after the inoculation. 0% means an efficacy which corresponds to that of the control, whereas an efficacy of 100% means that no infection is observed.
(§4) In this test, the following compounds according to the invention show, at an active compound concentration of 500 ppm, an efficacy of 70% or more: […]

[1] = log P by HPLC on reversed-phase columns (C 18), EEC directive 79/831 Annex V.A8; assay type: physicochemical; settings: reversed-phase HPLC columns (C 18); method [a]: LC-MS, acidic range pH 2.7, 0.1% aqueous formic acid/acetonitrile, gradient 10% to 95% acetonitrile
Method: The log P values were measured according to EEC directive 79/831 Annex V.A8 by HPLC (High Performance Liquid Chromatography) on reversed-phase columns (C 18), using the methods below: [a] The LC-MS determination in the acidic range is carried out at pH 2.7 with 0.1% aqueous formic acid and acetonitrile (contains 0.1% formic acid) as mobile phases; linear gradient from 10% acetonitrile to 95% acetonitrile.

Alternaria solani = test: Alternaria test (tomato)/protective; assay type: in vivo; settings: 168 h, tomato plants, protective spray, evaluation 7 days after inoculation, read-out: Efficacy (%)
Method: Alternaria Test (Tomato)/Protective
(§5) Solvent: 49 parts by weight of N,N-dimethylformamide
as §2
To produce a suitable preparation of active compound, 1 part by weight of active compound is mixed with the stated amounts of solvent and emulsifier, and the concentrate is diluted with water to the desired concentration. To test for protective activity, young tomato plants are sprayed with the preparation of active compound at the stated application rate. 1 day after the treatment, the plants are inoculated with a spore suspension of Alternaria solani and then remain at 100% rd. humidity and 22° C. for 24 h. The plants then remain at 96% rd. atmospheric humidity and a temperature of 20° C. Evaluation is carried out 7 days after the inoculation. 0% means an efficacy which corresponds to that of the control, whereas an efficacy of 100% means that no infection is observed.
as §4

Leptosphaeria nodorum = Leptosphaeria nodorum test (wheat)/protective; assay type: in vivo; settings: Parastagonospora nodorum, wheat plants, protective spray, evaluation 7-9 days after inoculation, read-out: Efficacy (%)
Method: Leptosphaeria nodorum Test (Wheat)/Protective
as §5, §2
To produce a suitable preparation of active compound, 1 part by weight of active compound is mixed with the stated amounts of solvent and emulsifier, and the concentrate is diluted with water to the desired concentration. To test for protective activity, young wheat plants are sprayed with the preparation of active compound at the stated application rate. 1 day after the treatment, the plants are inoculated with an aqueous spore suspension of Leptosphaeria nodorum and then remain at 100% relative atmospheric humidity and 22° C. for 48 h. The plants are then placed in a greenhouse at 90% relative atmospheric humidity and a temperature of 22° C. Evaluation is carried out 7-9 days after the inoculation. 0% means an efficacy which corresponds to that of the control, whereas an efficacy of 100% means that no infection is observed. In this test, the following compounds according to the invention show, at an active compound concentration of 500 ppm, an efficacy of 70% or more: […]

[2] = test system: Blumeria graminis fsp. hordei; test: Blumeria graminis test (barley)/protective; assay type: in vivo; settings: 168 h, protective spray, evaluation 7 days after inoculation, read-out: Efficacy (%)
Method: Blumeria graminis Test (Barley)/Protective
as §1, §2
To produce a suitable preparation of active compound, 1 part by weight of active compound is mixed with the stated amounts of solvent and emulsifier, and the concentrate is diluted with water to the desired concentration. To test for protective activity, young plants are sprayed with the preparation of active compound at the stated application rate. After the spray coating has dried on, the plants are dusted with spores of Blumeria graminis fsp. hordei. The plants are placed in a greenhouse at a temperature of about 18° C. and a relative air humidity of about 80% to promote the development of mildew pustules. Evaluation follows 7 days after the inoculation. 0% means an efficacy which corresponds to that of the control, whereas an efficacy of 100% means that no infection is observed.
as §4

Sphaerotheca fuliginea = test: Sphaerotheca test (cucumber)/protective; assay type: in vivo; settings: Podosphaera fuliginea, 168 h, cucumber plants, protective spray, evaluation 7 days after inoculation, read-out: Efficacy (%)
Method: Sphaerotheca Test (Cucumber)/Protective
as §5, §2
To produce a suitable preparation of active compound, 1 part by weight of active compound is mixed with the stated amounts of solvent and emulsifier, and the concentrate is diluted with water to the desired concentration. To test for protective activity, young cucumber plants are sprayed with the preparation of active compound at the stated application rate. 1 day after the treatment, the plants are inoculated with a spore suspension of Sphaerotheca fuliginea. The plants are then placed in a greenhouse at 70% relative air humidity and a temperature of 23° C. Evaluation follows 7 days after the inoculation. 0% means an efficacy which corresponds to that of the control, whereas an efficacy of 100% means that no infection is observed. In this test, the following compounds according to the invention show, at an active compound concentration of 500 ppm, an efficacy of 70% or more: […]

Puccinia triticina = Puccinia triticina test (wheat)/protective; assay type: in vivo; settings: 192 h, protective spray, evaluation 8 days after inoculation, read-out: Efficacy (%)
Method: Puccinia triticina Test (Wheat)/Protective
as §1, §2
as §3, with “sprayed with spores with a spore” for “sprayed with a spore”, “suspension of Puccinia triticina. The plants” for “suspension of Septoria tritici. The plants”, “48 hours. The plants” for “48 hours. Thereafter, the plants are placed under a translucent hood at 15° C. and 100% relative air humidity for a further 60 hours. The plants”, “of about 20° C. and” for “of about 15° C. and”, “Evaluation follows 8 days after” for “Evaluation follows 21 days after”
as §4

Uromyces appendiculatus = test: Uromyces test (bean)/protective; assay type: in vivo; settings: 240 h, protective spray, evaluation 10 days after inoculation, read-out: Efficacy (%)
Method: Uromyces Test (Bean)/Protective
(§6) Solvents: 24.5 parts by weight of acetone
(§7) • 24.5 parts by weight of dimethylacetamide Emulsifier: 1 part by weight of alkylaryl polyglycol ether
To produce a suitable preparation of active compound, 1 part by weight of active compound is mixed with the stated amounts of solvent and emulsifier, and the concentrate is diluted with water to the desired concentration. To test for protective activity, young plants are sprayed with the preparation of active compound at the stated application rate. After the spray coating has dried on, the plants are inoculated with an aqueous spore suspension of the bean rust pathogen Uromyces appendiculatus and then remain in an incubation cabin at about 20° C. and 100% relative atmospheric humidity for 1 day. The plants are then placed in the greenhouse at about 21° C. and a relative atmospheric humidity of about 90%. Evaluation follows 10 days after the inoculation. 0% means an efficacy which corresponds to that of the control, whereas an efficacy of 100% means that no infection is observed.
(§8) In this test, the following compounds according to the invention show, at an active compound concentration of 100 ppm, an efficacy of 70% or more: […]

Venturia inaequalis = test: Venturia test (apple)/protective; assay type: in vivo; settings: 240 h, protective spray, evaluation 10 days after inoculation, read-out: Efficacy (%)
Method: Venturia Test (Apple)/Protective
as §6, §7
To produce a suitable preparation of active compound, 1 part by weight of active compound is mixed with the stated amounts of solvent and emulsifier, and the concentrate is diluted with water to the desired concentration. To test for protective activity, young plants are sprayed with the preparation of active compound at the stated application rate. After the spray coating has dried on, the plants are inoculated with an aqueous conidia suspension of the apple scab pathogen Venturia inaequalis and then remain in an incubation cabin at approx. 20° C. and 100% relative air humidity for 1 day. The plants are then placed in the greenhouse at about 21° C. and a relative atmospheric humidity of about 90%. Evaluation follows 10 days after the inoculation. 0% means an efficacy which corresponds to that of the control, whereas an efficacy of 100% means that no infection is observed.
as §8

Row | chromatographic logP [1] | Compound | pest or weed control at 500 ppm (Septoria tritici) | pest or weed control at 500 ppm (Alternaria solani) | pest or weed control at 500 ppm (Leptosphaeria nodorum) | pest or weed control at 500 ppm [2] | pest or weed control at 500 ppm (Sphaerotheca fuliginea) | pest or weed control at 500 ppm (Puccinia triticina) | pest or weed control at 100 ppm (Uromyces appendiculatus) | pest or weed control at 100 ppm (Venturia inaequalis)
1 | 3.28 | CC(C)C(O)(CSc1ccc(SC(F)(F)F)cc1)c1cncnc1 (centres unmarked) [Compound 3] | 75% | 95% | 90% | 100% | 94% |  |  | 
2 |  | CC(C)(C)C(O)(CSc1ccc(SC(F)(F)F)cc1)c1cncnc1 (centres unmarked) [Compound 4] | 100% | 95% | 70% | 89% | 91% |  |  | 
3 |  | CC(C)(C)C(O)(CCc1ccc(SC(F)(F)F)cc1)c1cncnc1 (centres unmarked) [Compound 7] |  | 94% | 95% |  | 95% |  |  | 
4 |  | OC(c1cncnc1)(c1ccc(F)cc1F)C1(Oc2ccc(SC(F)(F)F)cc2)CC1 (centres unmarked) [Compound 8] |  | 80% |  |  | 100% |  |  | 
5 |  | CC(C)(Oc1ccc(OC(F)(F)F)cc1)C(C)(O)c1cncnc1 (centres unmarked) [Compound 9] | 90% | 100% | 100% | 100% | 95% | 100% | 100% | 94%
6 |  | CC(C)(Sc1ccc(OC(F)(F)F)cc1)C(C)(O)c1cncnc1 (centres unmarked) [Compound 10] |  | 100% | 100% |  |  |  |  | 
7 |  | CC(C)(Sc1ccc(SC(F)(F)F)cc1)C(C)(O)c1cncnc1 (centres unmarked) [Compound 11] |  | 100% | 95% |  |  |  |  | 
8 |  | CC#CC(O)(c1cncnc1)C(C)(C)Sc1ccc(OC(F)(F)F)cc1 (centres unmarked) [Compound 13] |  | 100% | 95% |  | 76% |  |  | 
9 |  | CC#CC(O)(c1cncnc1)C(C)(C)Oc1ccc(OC(F)(F)F)cc1 (centres unmarked) [Compound 14] | 90% | 94% | 100% | 100% | 95% | 89% |  | 
10 |  | CC#CC(O)(c1cncnc1)C(C)(C)Sc1ccc(SC(F)(F)F)cc1 (centres unmarked) [Compound 15] |  | 94% | 95% |  | 88% |  |  | 
11 |  | C=CCC(O)(c1cncnc1)C(C)(C)Sc1ccc(SC(F)(F)F)cc1 (centres unmarked) [Compound 16] |  | 100% | 70% |  |  |  |  | 
12 |  | OC(COc1ccc(OC(F)(F)F)cc1)(c1cncnc1)C1(Cl)CC1 (centres unmarked) [Compound 20] |  | 100% | 95% |  | 75% |  | 98% | 100%
13 |  | OC(COc1ccc(SC(F)(F)F)cc1)(c1cncnc1)C1(Cl)CC1 (centres unmarked) [Compound 21] |  | 95% |  |  | 100% |  |  | 
14 |  | CC(C)(Oc1cccc(OC(F)(F)F)c1)C(C)(O)c1cncnc1 (centres unmarked) [Compound 22] |  | 100% | 100% |  | 95% |  |  | 94%
15 |  | CC#CC(O)(c1cncnc1)C(C)(C)Oc1cccc(OC(F)(F)F)c1 (centres unmarked) [Compound 23] |  | 75% | 70% |  | 88% |  |  | 
16 |  | CC(C)C(O)(c1cncnc1)C(C)(C)Oc1cccc(OC(F)(F)F)c1 (centres unmarked) [Compound 24] |  | 95% | 80% |  | 83% |  |  | 
17 |  | CC(C)(Oc1ccccc1OC(F)(F)F)C(C)(O)c1cncnc1 (centres unmarked) [Compound 25] |  | 90% |  |  |  |  |  | 
18 |  | CC(C)C(O)(c1cncnc1)C(C)(C)Oc1ccccc1OC(F)(F)F (centres unmarked) [Compound 27] |  |  |  |  | 88% |  |  | 
19 | 3.47 | CC(C)(C)C(O)(COc1ccc(OC(F)(F)F)cc1Cl)c1cncnc1 (centres unmarked) [Compound 29] |  | 78% | 75% |  | 100% |  |  | 
20 | 3.04 | Cc1cc(OCC(O)(c2cncnc2)C(C)(C)C)ccc1SC(F)(F)F (centres unmarked) [Compound 32] |  |  |  |  | 95% |  |  | 
21 | 2.63 | CC(C)(C)C(O)(COc1ccc(OC(F)F)cc1)c1cncnc1 (centres unmarked) [Compound 34] |  | 95% | 100% |  | 95% |  |  | 
